The values that follow come from patent publication US20230340419A1, “METHODS FOR GENERATION OF MOUSE AND HUMAN URETERIC BUD ORGANOIDS AND COLLECTING DUCT ORGANOIDS” (University of Southern California, priority 2020, published 2023).

Common to all, as to type: cell-based, mouse
The subject of data set [1] is Wnt11-RFP UB organoid. The experiment in a line: Stage III 1st round screening of growth factors and small molecules for UB organoid culture condition. The conditions noted are these: for Organoid growth / Wnt11-RFP: reagent added to FGF9 + C3 + TTNPB + GDNF, compared to that control group; for Effect when used individually: individual versus combinatorial use of JAKI and SB202190. From the text:
We employed this Wnt11-RFP reporter system as a readout to screen for a culture condition that maintained the progenitor identity of UPCs in vitro. T-shaped UBs were manually isolated from E11.5 kidneys of Wnt11-RFP mice, and immediately embedded into Matrigel to set up a 3D culture platform that supported epithelial branching. In this 3D culture format, built on previous efforts towards the ex vivo culture of UB, hundreds of different combinations of growth factors and small molecules were tested (see also the Materials and Techniques section below for details under subheading “Screening for optimal UB culture condition”).
We systematically screened the optimal UB culture condition in four different stages (Stages I-IV).
In Stage III, based on the optimized recipe consisting of FGF9, TTNPB, CHIR99021 (3 μM) and GDNF, we preformed our 1st round of screening of growth factors and small molecules targeting major developmental pathways (e.g. TGF-β, BMP, Wnt, FGF, Hedgehog and Notch) and others. The branching morphogenesis, growth rate and Wnt11-RFP were recorded as readouts (Table 1). […] Representative images were taken at least for LDN193189, A83-01, and R-Spondin 1. These individual hits were then subjected to a 2nd round of screening to test their effects in various combinations, eventually leading to the identification of the optimal UB progenitor culture medium UBCM consisting of FGF9, TTNPB, CHIR99021 (3 μM), GDNF, LDN193189, A83-01, R-Spondin1, JAKI and SB202190.

A further data set deals with UB organoids. The data set can be described thus: 2nd round of CD differentiation condition screening (qRT-PCR of Aqp2 and Foxi1). As to conditions: for Aqp2 expression / Foxi1 expression: qRT-PCR, 7 days, under hBI+FGF9+Y27632 condition. Here is the method: The functions of the mature renal CD system are carried out by two major cell populations that are intermingled throughout the entire CD network. The more abundant principal cells (PCs) concentrate the urine and regulate Na^+/K^+ homeostasis via water and Na^+/K^+ transporters. The less abundant α- and β-intercalated cells (ICs) regulate normal acid-base homeostasis via secretion of H^+ or HCO3^− into the urine. The absence of an in vitro system recapitulating PC and IC development in an appropriate 3D context, constrains physiological exploration, disease modeling and drug screening on the renal CD system. With this limitation in mind, we developed a screen to establish conditions supporting the differentiation of CD organoids, assaying expression of Aqp2 and Foxi1, definitive markers for PC and IC lineages, respectively, by quantitative reverse transcription PCR (qRT-PCR), following 7 days of culture under variable but defined culture conditions (FIG. 2A).
Agonists or antagonists targeting major developmental pathways (e.g. TGF-β, BMP, Wnt, FGF, Hedgehog and Notch) were tested, together with hormonal inputs known to regulate PC or IC activity (aldosterone and vasopressin).

Data set [2] concerns Wnt11-RFP UB organoid. The experiment in a line: Withdrawal of individual components from UBCM (Stage IV validation). The conditions noted are these: component withdrawn from UBCM. From the text:
To determine whether UBCM culture conditions enabled clonal growth from a single UPC, dissociated E11.5 UBs were embedded at clonal density in Matrigel and cultured in UBCM medium. Around 30% of the single cells self-organized into E11.5 UB-like budding structures within 5 days, though a smaller percentage (3-5%) maintained Wnt11-RFP (FIG. 1G), an efficiency similar to clonal organoid formation for Lgr5^+ intestinal stem cells. Importantly, the clonally-derived Wnt11-RFP^+ budding structures were identical to intact E11.5 UB-derived organoids in both branching morphology and growth rate (Table 3, FIG. 1H).
Lastly, in Stage IV, we asked whether each of the components in UBCM was essential.

In a further data set the test system is Wnt11-RFP UB. The experiment in a line: Stage II optimisation of individual UB medium components. The conditions noted are these: titrated at 1, 3 and 6 μM. From the text:
In Stage II, we optimized the individual medium components employed by Yuri et al. (FGF1, RA, CHIR99021, and GDNF). We first asked if each individual factor was necessary in the medium. […] Then we further optimized these factors. RA is known to be unstable in tissue culture, so we replaced it with another widely used small molecule RA substitute TTNPB. CHIR99021 was used at 1p M by Yuri et al., but based on our own experiences and literature, different doses of CHIR99021 often have different biological effects. So we titrated it from 1p M, 3p M, to 6 μM, from which we identified 3 μM to be the optimal concentration. […] GDNF was unchanged in the medium, considering its essential role in maintaining the UB progenitor population in vitro and in vivo.

For the compound `O=C(NOC[C@H](O)CO)c1ccc(F)c(F)c1Nc1ccc(I)cc1F` [PD0325901], in the data set on Wnt11-RFP UB organoid [1], the Organoid growth entry was “No growth” and the Wnt11-RFP result is on record as “Dead at D 6”. Besides, in the data set on UB organoids, the Aqp2 expression result was “dramatically increased” and the Foxi1 expression result is on record as “dramatically increased”.

In the case of `CN1C(=O)c2sccc2N(C)c2nc(Nc3ccc(S(N)(=O)=O)cc3)ncc21` [XMU-MP-1], the Organoid growth result in the data set on Wnt11-RFP UB organoid [1] is “No growth”.

Consider `NC(=O)CC[C@@H]1NC(=O)[C@H](Cc2ccccc2)NC(=O)[C@H](Cc2ccc(O)cc2)NC(=O)[C@@H](N)CSSC[C@@H](C(=O)N2CCC[C@H]2C(=O)N[C@@H](CCCN=C(N)N)C(=O)NCC(N)=O)NC(=O)[C@H](CC(N)=O)NC1=O` [Vasopressin], for which the Aqp2 expression entry in the data set with UB organoids was “enhanced”.

As to SCF: growth factor tested in screening, in the data set on Wnt11-RFP UB organoid [1], the Organoid growth result is given as “Slightly better” and the Wnt11-RFP entry is listed as “Better”.

Regarding `Oc1ccc(-c2nc(-c3ccncc3)c(-c3ccc(F)cc3)[nH]2)cc1` [S6202190], in the data set on Wnt11-RFP UB organoid [1], the “Effect when used individually” value is listed as “only marginal effects” and the Wnt11-RFP result was “Slightly Better”.

As for `NC(=O)c1ncn([C@@H]2O[C@H](CO)[C@@H](O)[C@H]2O)c1N` [AICAR], in the data set on Wnt11-RFP UB organoid [1], the Wnt11-RFP result was “Slighty Better”.

As for `C[C@H](NC(=O)Cc1cc(F)cc(F)c1)C(=O)N[C@H](C(=O)OC(C)(C)C)c1ccccc1` [DAPT], the Wnt11-RFP entry with Wnt11-RFP UB organoid [1] was “Better”. Moreover, in the data set on UB organoids, the Aqp2 expression result is “dramatically increased” and the Foxi1 expression entry is “dramatically increased”.

Turning to “Activin A: growth factor tested in screening”, in the data set with Wnt11-RFP UB organoid [1], the Organoid growth entry was “Slower” and the Wnt11-RFP entry is recorded as “Worse”. Besides, the Note result in the data set on UB organoids is on record as “Dramatic”.

For `CC(C)(C)c1nc2c3cc[nH]c(=O)c3c3cc(F)ccc3c2[nH]1` [JAKI], in the data set with Wnt11-RFP UB organoid [1], the “Effect when used individually” value was “only marginal effects” and the Wnt11-RFP entry is reported as “Slightly Better”. In addition, in the data set on UB organoids, the Aqp2 expression entry is listed as “dramatically increased” and the Foxi1 expression entry is listed as “dramatically increased”.

Consider `c1ccc2c(-c3cnn4cc(-c5ccc(N6CCNCC6)cc5)cnc34)ccnc2c1` [LDN193189], for which, in the data set with Wnt11-RFP UB organoid [1], the Wnt11-RFP result is recorded as “Better”.

As to `Cc1cccc(-c2nn(C(=S)Nc3ccccc3)cc2-c2ccnc3ccccc23)n1` [A83-01], in the data set with Wnt11-RFP UB organoid [1], the Wnt11-RFP result is “Better”.

`CN(C)C(=N)NC(=N)N` [Melformin]: the Wnt11-RFP entry in the data set on Wnt11-RFP UB organoid [1] was “Slightly Better”.

Regarding “EGF: epidermal growth factor (NSDSECPLSHDGYCLHDGVCMYIEALDKYACNCVVGYIGERCQYRDLKWWELR; Epidermal growth factor; UniProt P01133 971-1023, looked up)”, the Wnt11-RFP entry in the data set with Wnt11-RFP UB organoid [1] is “Better”.

Take Heparin: the Wnt11-RFP result in the data set with Wnt11-RFP UB organoid [1] is on record as “Slightly Better”.

As to `C[C@]12CCC(=O)C=C1CC[C@@H]1[C@@H]2[C@@H](O)C[C@]2(C=O)[C@@H](C(=O)CO)CC[C@@H]12` [Aldosterone], the Foxi1 expression result in the data set on UB organoids is listed as “preferential increase”.

With FGF20: member of the FGF family, the Wnt11-RFP entry in the data set on Wnt11-RFP UB organoid [1] is recorded as “Worse”.

For FGF2: member of the FGF family, the Wnt11-RFP result in the data set with Wnt11-RFP UB organoid [1] is recorded as “Worse”.

For `Cc1c[nH]c(-c2cnc(NCCNc3ccc(C#N)cn3)nc2-c2ccc(Cl)cc2Cl)n1` [CHIR99021], the “Effect of withdrawal of the component from UBCM on organoid growth” value in the data set on Wnt11-RFP UB organoid [2] is reported as “growth arrest”. The compound also yielded an Optimal concentration in the data set on Wnt11-RFP UB of 3 µM.

Take Verteporfin: the Organoid growth entry with Wnt11-RFP UB organoid [1] is on record as “Dead”.
